# Results published in patent US20070149408A1, “METHOD FOR REDUCING NITROSAMINES IN TOBACCO” (UNIVERSITY OF KENTUCKY RESEARCH FOUNDATION, priority 2005, published 2007).
# Legend:
# whole tobacco leaf [1] = test: Total TSNA in cured tobacco, ferulic acid, ethanol and surfactant sprayed two days before harvest (Example 4); settings: ferulic acid + ethanol + DE FAC 820, versus untreated (Table 4)
# Procedure: Tobacco plants were treated by spraying them in the field with an aqueous solution comprising 0.25% wt. by vol. of ferulic acid, 5 gallons ethanol (95%), 250 gallons water and 0.25% by vol. of a non-ionic surfactant (DE FAC 820). This gave a 2% ethanol solution. Fifty (50) gallons of aqueous solution was applied per acre for the treated plants.
# Treated and non-treated tobacco was harvested and cured in a conventional dark fire tobacco barn with manual vents for aeration for 6 weeks, one week of natural ventilation followed by five weeks of wood fire curing in a conventional manner. The curing was conducted in a conventional curing barn as is typically found in the dark tobacco production regions of Kentucky and Tennessee. Both the treated and untreated tobacco were the same variety and harvested at the same time.
# Random leaves were removed from the cured treated and cured untreated tobacco and TSNA was measured in accordance with Example 1.
# whole tobacco leaf [2] = test: TSNA in cured tobacco, ferulic acid added to the smoke during fire curing (Example 6); settings: ferulic acid in wood smoke, versus untreated (Table 6)
# Description: In a conventional dark fire tobacco barn, wood lumber was laid on the floor of the barn and sawdust was spread on top of the wood. The lumber was set on fire and the sawdust smoldered and generated wood smoke. Ferulic acid, solid granular, from a conventional source, was sprinkled over the top of the sawdust at the start of the fire curing process and was applied in an amount of one pound per acre of tobacco in the barn, about 5000 tobacco plants. The fire curing started one or two days after the tobacco was harvested and hung in the barn. The ferulic acid lasted about one week on the sawdust during the fire curing.
# The fire curing was conducted for a total of 40 days.
# After curing, random leaves were collected from the treated tobacco and from the untreated tobacco. Both treated and untreated tobacco were of the same variety and came from two different barns. The untreated tobacco came from a different barn but was fire cured in the same manner as the treated tobacco except for the ferulic acid treatment.
compound,measurement,setting,value
"COc1cc(C=CC(=O)O)ccc1O [ferulic acid, 4-hydroxy-3-methoxy cinnamic acid]",reduction in TSNA,whole tobacco leaf [1],85%
same,reduction in TSNA,whole tobacco leaf [2],35%
